Measurements from the supplement of paper PMC10307832.

Legend:
Assay in all cases: relative viability (nuclei count vs DMSO), 5 days (fraction); higher = more cells survive
Gemcitabine + Bortezomib = compound: Nc1ccn([C@@H]2O[C@H](CO)[C@@H](O)C2(F)F)c(=O)n1 [Gemcitabine] + CC(C)C[C@H](NC(=O)[C@H](Cc1ccccc1)NC(=O)c1cnccn1)B(O)O [Bortezomib] (partner 0.002 µM)
How it was run: (§1)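 Lung cancer cell lines were pin-tool dosed in 1536-well plates on the day after seeding, with either a lone drug or a fixed anchor-drug dose plus five library-drug doses (not always all listed) in √10 steps. Nuclei were counted on 4× images after 5 days. Relative viability is the ratio of treated-well to vehicle-well nuclei counts, with each value a median of duplicate plates.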

Gemcitabine + Pictilisib = compound: Nc1ccn([C@@H]2O[C@H](CO)[C@@H](O)C2(F)F)c(=O)n1 [Gemcitabine] + CS(=O)(=O)N1CCN(Cc2cc3nc(-c4cccc5[nH]ncc45)nc(N4CCOCC4)c3s2)CC1 [Pictilisib] (partner 1 µM)
How it was run: as §1

Gemcitabine + Olaparib = compound: Nc1ccn([C@@H]2O[C@H](CO)[C@@H](O)C2(F)F)c(=O)n1 [Gemcitabine] + O=C(c1cc(Cc2n[nH]c(=O)c3ccccc23)ccc1F)N1CCN(C(=O)C2CC2)CC1 [Olaparib] (partner 8 µM)
How it was run: as §1

Gemcitabine + Trametinib = compound: Nc1ccn([C@@H]2O[C@H](CO)[C@@H](O)C2(F)F)c(=O)n1 [Gemcitabine] + CC(=O)Nc1cccc(-n2c(=O)n(C3CC3)c(=O)c3c(Nc4ccc(I)cc4F)n(C)c(=O)c(C)c32)c1 [Trametinib] (partner 0.02 µM)
How it was run: as §1

Cell Line	relative viability (Gemcitabine + Bortezomib; first compound 0.001 µM)	relative viability (Gemcitabine + Bortezomib; first compound 0.003162 µM)	relative viability (Gemcitabine + Bortezomib; first compound 0.01 µM)	relative viability (Gemcitabine + Bortezomib; first compound 0.03162 µM)	relative viability (Gemcitabine + Bortezomib; first compound 0.1 µM)	relative viability (Gemcitabine + Pictilisib; first compound 0.001 µM)	relative viability (Gemcitabine + Pictilisib; first compound 0.003162 µM)	relative viability (Gemcitabine + Pictilisib; first compound 0.01 µM)	relative viability (Gemcitabine + Pictilisib; first compound 0.03162 µM)	relative viability (Gemcitabine + Pictilisib; first compound 0.1 µM)	relative viability (Gemcitabine + Olaparib; first compound 0.001 µM)	relative viability (Gemcitabine + Olaparib; first compound 0.003162 µM)	relative viability (Gemcitabine + Olaparib; first compound 0.01 µM)	relative viability (Gemcitabine + Olaparib; first compound 0.03162 µM)	relative viability (Gemcitabine + Olaparib; first compound 0.1 µM)	relative viability (Gemcitabine + Trametinib; first compound 0.001 µM)	relative viability (Gemcitabine + Trametinib; first compound 0.003162 µM)	relative viability (Gemcitabine + Trametinib; first compound 0.01 µM)	relative viability (Gemcitabine + Trametinib; first compound 0.03162 µM)	relative viability (Gemcitabine + Trametinib; first compound 0.1 µM)
ChaGo-K-1	1	0.424	0.341	0.23	0.303	0.664	0.388	0.363	0.198	0.239	0.471	0.452	0.22	0.182	0.146	0.897	0.757	0.461	0.189	0.155
EBC-1	0.53	0.307	0.15	0.198	0.164	0.355	0.237	0.15	0.151	0.143	0.73	0.195	0.141	0.116	0.107					
EKVX	0.995	1.07	0.461	0.18	0.142	0.424	0.336	0.226	0.153	0.108	0.898	0.672	0.289	0.174	0.11	0.394	0.243	0.13	0.161	0.11
EMC-BAC-2	1.09	1.1	1.08	0.161	0.169	0.615	0.58	0.402	0.196	0.184	0.534	0.578	0.316	0.181	0.201	0.938	0.941	0.524	0.284	0.273
EPLC-272H	0.87	0.786	0.419	0.358	0.121	0.286	0.115	0.304	0.232	0.143	0.967	0.545	0.221	0.0733	0.0557	0.301	0.301	0.248	0.18	0.106
H3255	0.848	0.547	0.576	0.19	0.199	0.524	0.299	0.334	0.194	0.137	0.573	0.528	0.451	0.269	0.242	0.608	0.517	0.514	0.318	0.271
HARA	1.15	1.22	1.04	0.695	0.1	0.299	0.483	0.532	0.261	0.0888	0.927	1.1	0.535	0.162	0.0774	0.592	0.635	0.797	0.143	0.107
HCC-15	1.06	0.986	0.931	0.915	0.255	0.763	0.804	0.762	0.323	0.0914	0.831	0.73	0.625	0.175	0.103	0.369	0.383	0.363	0.196	0.0914
